# From patent US9493795B2 (Algenol Biofuels Inc., priority 2013, dated 2016)
# Like-named read-outs stand apart in the source and are kept apart here.
# What was measured:
# [1] = test system: alcohol dehydrogenase from Arthronema africanum, wild type, SEQ ID NO: 8; test: Km determination of native Adh in cell extract (forward and back reaction), Arthronema africanum; assay type: biochemical; settings: 0.15 mM NADPH, pH 7.5, 30° C., read-out: Km(MeCHO)
# [2] = test system: alcohol dehydrogenase from Synechococcus sp., wild type, SEQ ID NO: 4; test: Km determination of native Adh in cell extract (forward and back reaction), Synechococcus sp. SEQ ID NO: 4; assay type: biochemical; settings: pH 7.5, 30° C.
# Description: (§1) Km values of ADH enzymes were determined herein by varying concentrations of one substrate only while keeping all other substrates at saturated levels. The kinetic parameters of the ADH enzymes were determined herein on cellular extracts, and not on pure enzyme. Km was determined herein using a nonlinear regression algorithm for the single-substrate version of the Michaelis-Menten model by using GraphPad Prism Software (version 5). The detailed description of the algorithm is available on the world wide web at “graphpad.com/guides/prism/6/curve-fitting/index.htm?reg_kcat.htm”.
# (§2) As used herein, the Km value was measured according to the method described in Example 4. […] For the forward reaction measurement, 0.15 mM NADPH was added, and acetaldehyde was added in differing amounts ranging from […] to 50 mM. The NADPH oxidation was measured at a wavelength of 340 nm.
# (§3) In the above aspects, the Km-values represent the Km-values of the native, i.e. non-recombinant, form of the alcohol dehydrogenase enzyme. A Km-value as used herein can be determined from the endogenously expressed alcohol dehydrogenase enzyme of a wild-type cyanobacterial cell. […]
# (§4) The reaction was started by addition of varying amounts of acetaldehyde in final concentrations between 1 μM and 50 mM. The NADPH oxidation was spectrophotometrically monitored at a wavelength of 340 nm on a Shimadzu UV2450 spectrophotometer. […]
# [3] = test system: alcohol dehydrogenase from Cyanothece sp., wild type, SEQ ID NO: 3; test: Km determination of native Adh in cell extract (forward and back reaction), Cyanothece sp.; assay type: biochemical; settings: pH 7.5, 30° C.
# [4] = test system: alcohol dehydrogenase from Lyngbya sp., wild type, SEQ ID NO: 1; test: Km determination of native Adh in cell extract (forward and back reaction), Lyngbya sp.; assay type: biochemical; settings: pH 7.5, 30° C.
# [5] = test system: alcohol dehydrogenase from Synechococcus sp., wild type, SEQ ID NO: 6; test: Km determination of native Adh in cell extract (forward and back reaction), Synechococcus sp. SEQ ID NO: 6; assay type: biochemical; settings: pH 7.5, 30° C.
# Description: as §1, §2, §3, §4
# [6] = test system: alcohol dehydrogenase from Synechococcus sp., wild type, SEQ ID NO: 5; test: Km determination of native Adh in cell extract (forward and back reaction), Synechococcus sp. SEQ ID NO: 5; assay type: biochemical; settings: pH 7.5, 30° C.
# Description: as §1, §2, §3, §4
# [7] = test system: alcohol dehydrogenase AdhA from Moorella sp. HUC22-1; settings: Inokuma et al., Arch Microbiol 188 (2007) 37-45, cited from earlier work
# [8] = test system: alcohol dehydrogenase from Chroococcidiopsis sp., wild type, SEQ ID NO: 9; test: Km determination of native Adh in cell extract (forward and back reaction), Chroococcidiopsis sp. SEQ ID NO: 9; assay type: biochemical; settings: 0.15 mM NADPH, pH 7.5, 30° C., read-out: Km(MeCHO)
# Description: as §1, §2, §3, §4
# [9] = test system: Adh from LPP; test: Km determination in the screening, Adh from LPP; assay type: biochemical; settings: identified in the screening
# Description: as §1, §2, §3, §4
# [10] = 0.15 mM NADPH, read-out: Km(MeCHO)
# [11] = back reaction, 0.15 mM NADP+, read-out: Km(EtOH)
smiles,measurement,setting,value
CC=O [acetaldehyde],Km,[1],3340 µM
same,Km,[2]; [10],731 µM
same,Km,[3]; [10],75.6 µM
same,Km,"[4]; 0.15 mM NADPH, cell extract, Example 13, read-out: Km value for acetaldehyde",6 µM
same,Km,"[4]; 0.15 mM NADPH, cell extract, read-out: Km(MeCHO)",5.8 µM
same,Km,[5]; [10],1130 µM
same,Km,[6]; [10],783 µM
same,Km,[7]; read-out: Km for acetaldehyde,10000 µM
same,Km,[8],3730 µM
same,Km,[9]; read-out: Km for acetaldehyde,120 µM
CCO [ethanol],Km,[2]; [11],32400 µM
same,Km,[3]; [11],9330 µM
same,Km,"[4]; back reaction, 0.15 mM NADP+, cell extract, read-out: Km(EtOH)",830 µM
same,Km,[5]; [11],29300 µM
same,Km,[6]; [11],67000 µM
same,Km,[7]; read-out: Km for ethanol,40000 µM
same,Km,[9]; read-out: Km for ethanol,3600 µM
CCC=O [propanal],Km,"[4]; as Example 4: 0.15 mM NADPH, FIG. 15A, read-out: Km for propanal",5.3 µM
